The record followed here is patent EP0531119B1, “N,N',N'-trisubstituted -5-bis-aminomethylene-1,3-dioxane-4,6-dione inhibitors of acyl-CoA: cholesterol-acyl transferase” (AMERICAN HOME PRODUCTS CORPORATION, priority 1991, dated 1993).

The subject of test [1] is ¹⁴C-Cholesterol Absorption. Briefly: In vivo 14C-cholesterol absorption in normal rats. The conditions noted are these: oral gavage, dose 10 mg/kg, blood samples six hours later. On the procedure:
Representative compounds were further tested in vivo to establish the percent inhibition of cholesterol absorption. In this study, normal rats were dosed (oral gavage) with ¹⁴C-cholesterol plus the test compound. Blood samples taken exactly six hours later were analyzed and the percent inhibition of cholesterol absorption was calculated as shown in: Table II

The subject of test [2] is plasma cholesterol. Briefly: Cholesterol-cholic acid fed rat, decrease of plasma cholesterol. Type of test: in vivo. The following applies: 10 mg/kg, oral gavage just prior to and just following feeding, four days. As to the method:
In addition, the product of Example 1 was studied in vivo in the cholesterol-cholic acid fed rat to determine the percent decrease of cholesterol in their plasma This study involves rats which are, prior to testing, trained for one week to eat over a four hour time period each day. Upon initiation of the experiment, the rats diet is supplemented with 1.0 percent cholesterol and 0.25 percent cholic acid. The rats are dosed with the test compound by oral gavage just prior to and just following the four hour feeding period. This is repeated for four days. On the fifth day, the rats are sacrificed and the total plasma cholesterol content is determined. The percent decrease in elevated plasma cholesterol levels is calculated in comparison with […] controls.

Test [3] deals with acyl-coenzyme A: cholesterol acyltransferase. The test can be described thus: Inhibition of intracellular cholesterol esterification (ACAT), test procedure of Ross et al. Type of test: cell-based. From the text: The ability of the compounds of this invention to inhibit acyl-coenzyme A: cholesterol acyltransferase was established by initially showing that they inhibited intracellular cholesterol esterification by subjecting them to the standard experimental test procedure of Ross et al., J. Biol. Chem. 259 815 (1984). The results of these studies are presented in: Table I

Take `CCCCCCN(Cc1ccnc2ccccc12)C(Nc1cc(C(C)(C)C)c(O)c(C(C)(C)C)c1)=C1C(=O)OC(C)(C)OC1=O` [Example 1, 5-[[[3,5-Bis(1,1-dimethylethyl)-4-hydroxyphenyl]amino][hexyl(4-quinolinylmethyl)amino]methylene]-2,2-dimethyl-1,3-dioxane-4,6-dione]: the “% Inhibition of Absorption” value in test [1] amounted to 72%. The “decrease in plasma cholesterol” value in test [2] is 50%. The “% Inhib, (Concentration - µM)” value in test [3] (25 µM) is 69 (25) %. Also, the IC50 in test [3] (read-out: IC₅₀) worked out at 2.96 µM.
